Measured values as given in patent publication US11578315B2, “Truncated guinea pig L-asparaginase variants and methods of use” (THE BOARD OF TRUSTEES OF THE UNIVERSITY OF ILLINOIS, priority 2017, dated 2023).
Several values for one entry are separate records, joined by “and”; a condition that tells them apart may be missing. Equal entries are not always repeated.

Experiments:
[1] = molecular target: T1, guinea pig L-asparaginase (GpA) variant 40K-PEGylated-GpA369-C198A, SEQ ID NO:51 (Cavia porcellus, UniProt H0W0T5, C198A); test: L-asparaginase activity, kobs at 2 mM Asn; assay type: biochemical; settings: linear PEG
T1 construct: made in house
Experimental: (§1) The catalytic activity of the clones was determined using a spectroscopic NADH-dependent enzyme-coupled assay (Fernandez, et al. (2013) Int. J. Clin. Exp. Med. 6:478-487; Hejazi, et al. (2002) Biochem. J. 364:129-136), which measures the production of L-aspartic acid (Asp) through the 1:1 oxidation of reduced NADH. The conversion of NADH to NAD was measured spectrophotometrically as a decrease in absorbance at 340 nm at 37° C. All measurements were taken in triplicate in a buffer containing 100 mM Tris pH 7.5, 0.4 mM α-ketoglutarate and 0.4 mM NADH with 50 nM (hASNase1, hN-gC); 10 nM (gpASNase1, gN-hC, 63-hC, 64-hC, 65-hC, SA-hC) or 3 nM (ansB) enzyme. Glutamic-oxalacetic transaminase (Sigma) and malic dehydrogenase (Sigma) were helper enzymes for the coupled enzymatic reactions; 5 and 1 unit were used, respectively. Data were fit to the Michaelis-Menten equation using SigmaPlot (Systat Software Inc). Due to the cooperative nature of hASNase1, this enzyme was analyzed using the Hill equation.
(§2) Each of the variants listed in Table 9 were recombinantly expressed, purified and PEGylated with one or more of mPEG-10K, mPEG-20K and mPEG-40K (Table 10). As determined by SDS-PAGE analysis, the size of the PEGylated enzymes increased with an increase in the number of active cysteines. For example, using maleimide-PEG10K, GpA369(hum)-C198A migrated at a higher molecular weight after PEGylation (due to the extra 10K Da supplied by the PEG), and GpA369(hum)-C198A+R52C migrated at an even higher apparent molecular weight since this variant can react with two PEG molecules (for a total of an extra 20K Da supplied by two 10K molecules linked to the enzyme). Of note, the GpA369-C198A-K225C-E340C-E49C-Q257C mutant was prepared, expressed, purified and PEGylated with mPEG-10K.

[2] = molecular target: T2, guinea pig L-asparaginase (GpA) variant 10K-PEGylated-GpA369-C198A, SEQ ID NO:51 (Cavia porcellus, UniProt H0W0T5, C198A); test: L-asparaginase activity, kobs at 2 mM Asn; assay type: biochemical; settings: linear PEG
T2 construct: made in house
Experimental: as §1, §2

[3] = molecular target: T3, guinea pig L-asparaginase (GpA) variant 20K-PEGylated-GpA369-C198A, SEQ ID NO:51 (Cavia porcellus, UniProt H0W0T5, C198A); test: L-asparaginase activity, kobs at 2 mM Asn; assay type: biochemical; settings: linear PEG
T3 construct: made in house
Experimental: as §1, §2

[4] = molecular target: T4, guinea pig L-asparaginase (GpA) variant GpA369-C198A, SEQ ID NO:51 (Cavia porcellus, UniProt H0W0T5, C198A); test: L-asparaginase activity, kobs at 2 mM Asn; assay type: biochemical
T4 construct: made in house
Experimental: as §1

[5] = molecular target: T5, guinea pig L-asparaginase (GpA) variant GpA369-C198A + K225C, SEQ ID NO:54 (Cavia porcellus, UniProt H0W0T5, C198A/K225C); test: L-asparaginase activity, kobs at 2 mM Asn; assay type: biochemical
T5 construct: GpA369-C198A + K225C; 99.4%; 71.7%; 54; made in house
Experimental: as §1

[6] = molecular target: T6, guinea pig L-asparaginase (GpA) variant GpA369-C198A + K225C + E340C, SEQ ID NO:55 (Cavia porcellus, UniProt H0W0T5, C198A/E340C/K225C); test: L-asparaginase activity, kobs at 2 mM Asn; assay type: biochemical
T6 construct: made in house
Experimental: as §1

[7] = molecular target: T7, guinea pig L-asparaginase (GpA) variant GpA369, residues 1-369, SEQ ID NO:5 (Cavia porcellus, UniProt H0W0T5); test: L-asparaginase activity, kobs at 2 mM Asn; assay type: biochemical
T7 construct: GpA369; 1-369; SUMO (cleaved yes); made in house
Experimental: as §1

[8] = molecular target: T8, guinea pig L-asparaginase (GpA) variant GpA369-C198A + K225C + E340C + E49C, SEQ ID NO:56 (Cavia porcellus, UniProt H0W0T5, C198A/E340C/E49C/K225C); test: L-asparaginase activity, kobs at 2 mM Asn; assay type: biochemical
T8 construct: made in house
Experimental: as §1

[9] = tested on: SAN-hC, shuffled hASNase1/gpASNase1 clone #SA with human C-terminal domain, SEQ ID NO:42; test: L-asparaginase kinetics, NADH-dependent enzyme-coupled assay; assay type: biochemical, human / guinea pig; settings: pH 7.5, 37° C.
Experimental: as §1
(§3) Since the goal was to identify a clone with gpASNase1 kinetic properties but with the highest sequence homology to hASNase1, the four clones, #63, #64, #65 and # SA, were engineered by replacing their shuffled C-terminal domain with the exact sequence of the human C-terminal domain (FIG. 1).
(§4) For determining the precise kinetic properties of 63N-hC, 64N-hC, 65N-hC and SAN-hC, the genes encoding these enzymes were sub-cloned into a pET14b expression vector and expressed in C41 E. coli cells. The purified clones were tested for their L-asparaginase activity (Table 4). E. coli L-asparaginase ansB was also included in order to compare the clones to an L-asparaginase approved for cancer therapy. […] Importantly, the kobs@50 μM values for the humanized clones were also in this range, being 17 sec^−1, 10 sec^−1, 17 sec^−1 and 6 sec^−1 for clones 63N-hC, 64N-hC, 65N-hC and SAN-hC, respectively.

[10] = tested on: 64N-hC, shuffled hASNase1/gpASNase1 clone #64 with human C-terminal domain, SEQ ID NO:40; test: as above; assay type: biochemical, human / guinea pig; settings: pH 7.5, 37° C.
Experimental: as §1, §3, §4

[11] = tested on: 63N-hC, shuffled hASNase1/gpASNase1 clone #63 with human C-terminal domain, SEQ ID NO:39; test: as above; assay type: biochemical, human / guinea pig; settings: pH 7.5, 37° C.
Experimental: as §1, §3, §4

[12] = tested on: 65N-hC, shuffled hASNase1/gpASNase1 clone #65 with human C-terminal domain, SEQ ID NO:41; test: as above; assay type: biochemical, human / guinea pig; settings: pH 7.5, 37° C.
Experimental: as §1, §3, §4

[13] = tested on: guinea pig L-asparaginase (gpASNase1, GpA), wild type, SEQ ID NO:1; settings: Schalk, et al. (2014), cited from earlier work
[14] = tested on: E. coli L-asparaginase iiiA; settings: in words; cited from earlier work

T6 sequence (H0W0T5 1-369 C198A/K225C/E340C): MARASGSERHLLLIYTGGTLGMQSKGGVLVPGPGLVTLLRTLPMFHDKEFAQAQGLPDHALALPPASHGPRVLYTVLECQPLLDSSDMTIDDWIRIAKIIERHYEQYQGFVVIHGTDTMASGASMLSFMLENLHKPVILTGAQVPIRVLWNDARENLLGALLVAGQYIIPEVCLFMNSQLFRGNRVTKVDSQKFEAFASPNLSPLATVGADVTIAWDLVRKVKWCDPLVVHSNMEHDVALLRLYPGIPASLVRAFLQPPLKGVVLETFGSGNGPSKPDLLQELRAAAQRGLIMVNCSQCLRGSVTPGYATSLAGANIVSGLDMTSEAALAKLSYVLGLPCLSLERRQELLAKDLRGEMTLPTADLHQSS
T5 sequence (H0W0T5 1-369 C198A/K225C): as the sequence (H0W0T5 1-369 C198A/K225C/E340C) above, with C340E counted along it
T8 sequence (H0W0T5 1-369 E49C/C198A/K225C/E340C): as the sequence (H0W0T5 1-369 C198A/K225C/E340C) above, with E49C counted along it
T3 sequence (H0W0T5 1-369 C198A): as the sequence (H0W0T5 1-369 C198A/K225C/E340C) above, with C225K, C340E counted along it
T4 sequence (H0W0T5 1-369 C198A): as the sequence (H0W0T5 1-369 C198A/K225C/E340C) above, with C225K, C340E counted along it
T2 sequence (H0W0T5 1-369 C198A): as the sequence (H0W0T5 1-369 C198A/K225C/E340C) above, with C225K, C340E counted along it
T1 sequence (H0W0T5 1-369 C198A): as the sequence (H0W0T5 1-369 C198A/K225C/E340C) above, with C225K, C340E counted along it

SMILES: NC(=O)C[C@H](N)C(=O)O [Asn, L-asparagine]
- kobs at 2 mM ASN [1]: 76.5 s⁻¹
- kobs at 2 mM ASN [2]: 83.3 s⁻¹
- kobs at 2 mM ASN [3]: 83.7 s⁻¹
- kobs at 2 mM ASN [4]: 43.3 s⁻¹
- kobs at 2 mM ASN [5]: 41.4 s⁻¹
- kobs at 2 mM ASN [6]: 42.4 s⁻¹
- kobs at 2 mM ASN [7]: 44 s⁻¹
- kobs at 2 mM ASN [8]: 41.6 s⁻¹
- kobs @50 μM ([9]; 50 μM Asn): 6 s⁻¹ and 6 ± 1 s⁻¹
- kcat/Km [9]: 0.2 sec^−1μM^−1
- Km ([9]; 10 nM enzyme): 165 µM
- kcat ([9]; 10 nM enzyme): 32 ± 2 s⁻¹
- kobs @50 μM ([10]; 50 μM Asn): 10 s⁻¹ and 10 ± 1 s⁻¹
- kcat/Km [10]: 0.3 sec^−1μM^−1
- Km ([10]; 10 nM enzyme): 202 ± 17 µM
- kcat ([10]; 10 nM enzyme): 60 ± 2 s⁻¹
- kobs @50 μM ([11]; 50 μM Asn): 17 s⁻¹ and 17 ± 0.5 s⁻¹
- kcat/Km [11]: 0.7 sec^−1μM^−1
- Km ([11]; 10 nM enzyme): 47 µM
- kcat ([11]; 10 nM enzyme): 32 ± 0.6 s⁻¹
- kobs @50 μM ([12]; 50 μM Asn): 17 s⁻¹ and 17 ± 1 s⁻¹
- kcat/Km [12]: 0.5 sec^−1μM^−1
- Km ([12]; 10 nM enzyme): 74 µM
- kcat ([12]; 10 nM enzyme): 40 ± 1 s⁻¹
- reaction rate (kcat) [13]: approximately 39 s^−1
- Km for Asn ([13]; in words): in the micromolar range
- Km ([13]; read-out: Km for Asn): 58 µM
- Km value for Asn [14]: very high
